Measured values from paper PMC9036655 (RSC Advances, 2021).

What was measured:
[1] = test system: M. tuberculosis H37Rv; assay: Antimycobacterial activity against M. tuberculosis H37Rv; format: cell-based, Mycobacterium tuberculosis; settings: for inhibition at 50 µg/mL / inhibition at 20 µg/mL: Mycobacterium tuberculosis, H37RV; for inhibition at 50 µg/mL: read-out: % inhibition 50 μg mL^−1, M. tuberculosis H37Rv, 50 μg mL^−1; for inhibition at 20 µg/mL: read-out: % inhibition 20 μg mL^−1, M. tuberculosis H37Rv; for inhibition at 20 µg/mL / % inhibition 20 μg mL^−1: 20 μg mL^−1
[2] = test system: A549 cells; assay: Cytotoxicity, MTT assay, A549 cells; format: cell-based, Human; settings: for IC50: Homo sapiens, A549, 72 h, read-out: IC50 A549; for Selectivity index A549: IC50(A549)/MIC M. tb.
[3] = test system: Vero cells; assay: Cytotoxicity, MTT assay, Vero cells; format: cell-based, African green monkey; settings: IC50(Vero)/MIC M. tb.

## 4-Methyl-3-(((1-(4-(trifluoromethoxy)benzoyl)piperidin-4-yl)amino)methyl)-5,6,7,8-tetrahydroquinolin-2(1H)-one [6d10]
[1]; M. tuberculosis H37Rv, MIC90, average of three measurements
  MIC: >50 µg/mL

## Cc1[nH]c(=O)c(CNC(=O)c2ccc([N+](=O)[O-])s2)c2c1CCC2 [6a1, N-((1-Methyl-3-oxo-3,5,6,7-tetrahydro-2H-cyclopenta[c]pyridin-4-yl)methyl)-5-nitrothiophene-2-carboxamide]
[1]
  inhibition at 50 µg/mL: 53%

## Cc1[nH]c(=O)c(CNC(=O)c2ccc(F)nc2)c2c1CCC2 [6a2, 6-Fluoro-N-((1-methyl-3-oxo-3,5,6,7-tetrahydro-2H-cyclopenta[c]pyridin-4-yl)methyl)nicotinamide]
[1]
  inhibition at 50 µg/mL: 14%

## COc1cc(OC)cc(-c2ccc(C(=O)NCc3c4c(c(C)[nH]c3=O)CCCC4)cc2)c1 [6b6, 3′,5′-Dimethoxy-N-((1-methyl-3-oxo-2,3,5,6,7,8-hexahydroisoquinolin-4-yl)methyl)-[1,1′-biphenyl]-4-carboxamide]
[2]
  IC50: > 100 µg/mL
  Selectivity index A549: >33
[3]
  Selectivity index Vero: >16

## Cc1[nH]c(=O)c(CNC(=O)c2ccc(Cl)nc2)c2c1CCCC2 [6b24, 6-Chloro-N-((1-methyl-3-oxo-2,3,5,6,7,8-hexahydroisoquinolin-4-yl)methyl)nicotinamide]
[1]
  inhibition at 20 µg/mL: 98.3%

## Cc1[nH]c(=O)c(CNC(=O)c2ccc(Br)nc2)c2c1CCCC2 [6b25, 6-Bromo-N-((1-methyl-3-oxo-2,3,5,6,7,8-hexahydroisoquinolin-4-yl)methyl)nicotinamide]
[1]
  inhibition at 20 µg/mL: 98.9%

## Cc1[nH]c(=O)c(CNC(=O)c2ccc(F)nc2)c2c1CCCC2 [6b26, 6-Fluoro-N-((1-methyl-3-oxo-2,3,5,6,7,8-hexahydroisoquinolin-4-yl)methyl)nicotinamide]
[2]
  IC50: > 100 µg/mL
  Selectivity index A549: >63
[1]
  inhibition at 20 µg/mL: 94.1%
[3]
  Selectivity index Vero: >31

## Cc1ccc(C(=O)NCc2c3c(c(C)[nH]c2=O)CCCC3)cn1 [6b27, 6-Methyl-N-((1-methyl-3-oxo-2,3,5,6,7,8-hexahydroisoquinolin-4-yl)methyl)nicotinamide]
[1]
  inhibition at 20 µg/mL: 98.6%

## Cc1[nH]c(=O)c(CNC(=O)c2ccc([N+](=O)[O-])nc2)c2c1CCCC2 [6b28, N-((1-Methyl-3-oxo-2,3,5,6,7,8-hexahydroisoquinolin-4-yl)methyl)-6-nitronicotinamide]
[1]
  inhibition at 20 µg/mL: 98.9%

## Cc1[nH]c(=O)c(CNC(=O)c2ccc([N+](=O)[O-])o2)c2c1CCCC2 [6b29, N-((1-Methyl-3-oxo-2,3,5,6,7,8-hexahydroisoquinolin-4-yl)methyl)-5-nitrofuran-2-carboxamide]
[2]
  IC50: > 100 µg/mL
  Selectivity index A549: >35
[1]
  inhibition at 20 µg/mL: 100%
[3]
  Selectivity index Vero: >17

## Cc1[nH]c(=O)c(CNC(=O)c2cc([N+](=O)[O-])co2)c2c1CCCC2 [6b30, N-((1-Methyl-3-oxo-2,3,5,6,7,8-hexahydroisoquinolin-4-yl)methyl)-4-nitrofuran-2-carboxamide]
[1]
  inhibition at 20 µg/mL: 78.2%

## Cc1[nH]c(=O)c(CNC(=O)c2ccc(Br)o2)c2c1CCCC2 [6b31, 5-Bromo-N-((1-methyl-3-oxo-2,3,5,6,7,8-hexahydroisoquinolin-4-yl)methyl)furan-2-carboxamide]
[1]
  inhibition at 20 µg/mL: 97.7%

## Cc1[nH]c(=O)c(CNC(=O)c2ccc([N+](=O)[O-])s2)c2c1CCCC2 [6b32, N-((1-Methyl-3-oxo-2,3,5,6,7,8-hexahydroisoquinolin-4-yl)methyl)-5-nitrothiophene-2-carboxamide]
[1]
  inhibition at 20 µg/mL: 96.4%

## Cc1[nH]c(=O)c(CNC(=O)c2ccc(C(F)(F)F)o2)c2c1CCCC2 [6b33, N-((1-Methyl-3-oxo-2,3,5,6,7,8-hexahydroisoquinolin-4-yl)methyl)-5-(trifluoromethyl)furan-2-carboxamide]
[2]
  IC50: > 100 µg/mL
  Selectivity index A549: >50
[1]
  inhibition at 20 µg/mL: 98.3%
[3]
  Selectivity index Vero: >25

## Cc1[nH]c(=O)c(CNC(=O)c2cn[nH]c2)c2c1CCCC2 [6b35, N-((1-Methyl-3-oxo-2,3,5,6,7,8-hexahydroisoquinolin-4-yl)methyl)-1H-pyrazole-4-carboxamide]
[1]
  inhibition at 20 µg/mL: 94.6%

## Cc1[nH]c(=O)c(CNC(=O)c2ccno2)c2c1CCCC2 [6b36, N-((1-Methyl-3-oxo-2,3,5,6,7,8-hexahydroisoquinolin-4-yl)methyl)isoxazole-5-carboxamide]
[1]
  inhibition at 20 µg/mL: 25.1%

## Cc1[nH]c(=O)c(CNC(=O)c2ccc(Br)nc2)c2c1CCCCC2 [6c1, 6-Bromo-N-((1-methyl-3-oxo-3,5,6,7,8,9-hexahydro-2H-cyclohepta[c]pyridin-4-yl)methyl)nicotinamide]
[1]
  inhibition at 50 µg/mL: 33%

## Cc1c2c([nH]c(=O)c1CNC(=O)c1ccc([N+](=O)[O-])s1)CCCC2 [6d5, N-((4-Methyl-2-oxo-1,2,5,6,7,8-hexahydroquinolin-3-yl)methyl)-5-nitrothiophene-2-carboxamide]
[1]
  inhibition at 50 µg/mL: 100%

## COc1cc(OC)cc(C(=O)NCc2c(C)c3c([nH]c2=O)CCCC3)c1 [6d6, 3,5-Dimethoxy-N-((4-methyl-2-oxo-1,2,5,6,7,8-hexahydroquinolin-3-yl)methyl)benzamide]
[1]
  inhibition at 50 µg/mL: 100%

## Cc1c2c([nH]c(=O)c1CNC(=O)c1ccc(C(F)(F)F)nc1Cl)CCCC2 [6d7, 2-Chloro-N-((4-methyl-2-oxo-1,2,5,6,7,8-hexahydroquinolin-3-yl)methyl)-6-(trifluoromethyl)nicotinamide]
[1]
  inhibition at 50 µg/mL: 99%

## Cc1c2c([nH]c(=O)c1CNC(=O)c1ccc(-c3ccc(C(F)(F)F)nc3)cc1)CCCC2 [6d9, N-((4-Methyl-2-oxo-1,2,5,6,7,8-hexahydroquinolin-3-yl)methyl)-4-(6-(trifluoromethyl)pyridin-3-yl)benzamide]
[1]
  inhibition at 50 µg/mL: 18%

## COc1cc(OC)cc(-c2ccc(C(=O)NCc3c(C)cc(C4CC4)[nH]c3=O)cc2)c1 [7a2, N-((6-Cyclopropyl-4-methyl-2-oxo-1,2-dihydropyridin-3-yl)methyl)-3′,5′-dimethoxy-[1,1′-biphenyl]-4-carboxamide]
[1]
  inhibition at 20 µg/mL: 21%

## COc1cc(OC)cc(-c2ccc(C(=O)NCc3c(C)cc(-c4ccccc4)[nH]c3=O)cc2)c1 [7b2, 3′,5′-Dimethoxy-N-((4-methyl-2-oxo-6-phenyl-1,2-dihydropyridin-3-yl)methyl)-[1,1′-biphenyl]-4-carboxamide]
[1]
  inhibition at 20 µg/mL: 33%

## Cc1cc(C)c(CNC(=O)c2ccc([N+](=O)[O-])o2)c(=O)[nH]1 [8a1, N-((4,6-Dimethyl-2-oxo-1,2-dihydropyridin-3-yl)methyl)-5-nitrofuran-2-carboxamide]
[1]
  inhibition at 20 µg/mL: 75.3%

## CCc1cc(CC)c(CNC(=O)c2ccc([N+](=O)[O-])o2)c(=O)[nH]1 [8a3, N-((4,6-Diethyl-2-oxo-1,2-dihydropyridin-3-yl)methyl)-5-nitrofuran-2-carboxamide]
[1]
  inhibition at 20 µg/mL: 98.1%

## Cc1cc(C)c(CNC(=O)c2ccc(C(F)(F)F)cc2)c(=O)[nH]1 [8a4, N-((4,6-Dimethyl-2-oxo-1,2-dihydropyridin-3-yl)methyl)-4-(trifluoromethyl)benzamide]
[1]
  inhibition at 20 µg/mL: 87.6%

## CCc1cc(CC)c(CNC(=O)c2ccc(C(F)(F)F)nc2)c(=O)[nH]1 [8a5, N-((4,6-Diethyl-2-oxo-1,2-dihydropyridin-3-yl)methyl)-6-(trifluoromethyl)nicotinamide]
[1]
  inhibition at 20 µg/mL: 94.4%

## Cc1c(CNC(=O)c2ccc(C(F)(F)F)nc2)c(=O)[nH]c2ccccc12 [9a1, N-((4-Methyl-2-oxo-1,2-dihydroquinolin-3-yl)methyl)-6-(trifluoromethyl)nicotinamide]
[1]
  inhibition at 50 µg/mL: 2%

## COc1cc(OC)cc(-c2ccc(C(=O)NCc3c(C)c4ccccc4[nH]c3=O)cc2)c1 [9a2, 3′,5′-Dimethoxy-N-((4-methyl-2-oxo-1,2-dihydroquinolin-3-yl)methyl)-[1,1′-biphenyl]-4-carboxamide]
[1]
  inhibition at 50 µg/mL: 15%

## Cc1c(CNC(=O)c2ccc(-c3ccc(C(F)(F)F)nc3)cc2)c(=O)[nH]c2ccccc12 [9a3, N-((4-Methyl-2-oxo-1,2-dihydroquinolin-3-yl)methyl)-4-(6-(trifluoromethyl)pyridin-3-yl)benzamide]
[1]
  inhibition at 50 µg/mL: 13%

## Cc1c(CNC(=O)c2cnc(C(F)(F)F)nc2)c(=O)[nH]c2ccccc12 [9a4, N-((4-Methyl-2-oxo-1,2-dihydroquinolin-3-yl)methyl)-2-(trifluoromethyl)pyrimidine-5-carboxamide]
[1]
  inhibition at 50 µg/mL: 3%

## Cc1[nH]c(=O)c(CNCc2ccc(C(F)(F)F)cc2)c2c1CCCC2 [10a1, 1-Methyl-4-(((4-(trifluoromethyl)benzyl)amino)methyl)-5,6,7,8-tetrahydroisoquinolin-3(2H)-one]
[1]
  inhibition at 20 µg/mL: 65.7%

## Cc1[nH]c(=O)c(CNS(=O)(=O)c2ccc(C(F)(F)F)nc2)c2c1CCCC2 [10a2, N-((1-Methyl-3-oxo-2,3,5,6,7,8-hexahydroisoquinolin-4-yl)methyl)-6-(trifluoromethyl)pyridine-3-sulfonamide]
[1]
  inhibition at 20 µg/mL: 92.7%

## Cc1[nH]c(=O)c(C(=O)Nc2ccc(C(F)(F)F)cc2)c2c1CCCC2 [10a4, 1-Methyl-3-oxo-N-(4-(trifluoromethyl)phenyl)-2,3,5,6,7,8-hexahydroisoquinoline-4-carboxamide]
[1]
  inhibition at 20 µg/mL: 36.8%

## Cc1[nH]c(=O)c(CNC(=O)Cc2ccc(C(F)(F)F)cc2)c2c1CCCC2 [10a5, N-((1-Methyl-3-oxo-2,3,5,6,7,8-hexahydroisoquinolin-4-yl)methyl)-2-(4-(trifluoromethyl)phenyl)acetamide]
[1]
  inhibition at 20 µg/mL: 99.3%

## NNC(=O)c1ccncc1 [Isoniazid, reference compound]
[1]; M. tuberculosis H37Rv
  % inhibition 20 μg mL^−1: 99.4%
[1]
  inhibition at 20 µg/mL: 98.9%
  inhibition at 50 µg/mL: 98.9%

## N-((6-Ethyl-4-methyl-2-oxo-1,2-dihydropyridin-3-yl)methyl)-5-nitrofuran-2-carboxamide [8a2]
[1]; M. tuberculosis H37Rv
  % inhibition 20 μg mL^−1: 98.2%
